Patent EP4553077A1 (Kinoteck Therapeutics Co., Ltd, priority 2022, dated 2024)

Legend:
Ba/F3-TEL-FGFR1 = Ba/F3-TEL-FGFR1 (Homo sapiens, UniProt P11362+P41212); assay: Cell viability (proliferation inhibition) of Ba/F3 cells, CellTiter Glo; details: read-out: Ba/F3 cell FGFR1 (IC50 nM), 72 h
Ba/F3-TEL-FGFR2 = Ba/F3-TEL-FGFR2 (Homo sapiens, UniProt P21802+P41212); assay: as above; details: read-out: Ba/F3 cell FGFR2 (IC50 nM), 72 h
Ba/F3-TEL-FGFR3 = Ba/F3-TEL-FGFR3 (Homo sapiens, UniProt P22607+P41212); assay: as above; details: read-out: Ba/F3 cell FGFR3 (IC50 nM), 72 h
[1] = Pharmacokinetic test in rats; type: in vivo, male SD rats; details: rat, plasma, oral gavage administration, 10 mg/kg
Description: Rat pharmacokinetic experiments were performed using male SD rats, 180-220g, provided by Beijing Vital River Laboratory Animal Technology Co., Ltd. 3 rats that were fasted overnight were taken, and administered orally by gavage (10 mg/kg). Blood samples were collected before administration, as well as 5, 15, 30 min and 1, 2, 4, 6, 8, 24 h after administration; another 3 rats were taken and administered intravenously (1 mg/kg), blood samples were collected before administration, as well as 5, 15, 30 min and 1, 2, 4, 6, 8, 24 h after administration. Blood sample was centrifuged at 6800g, 2-8 °C for 6 min, and plasma was collected, and stored at -80 °C. Plasma of each time point was taken, 10 times the amount of 50% methanol acetonitrile solution containing internal standard was added, and mixed by vortex for 5 min, centrifuged at 18000 rpm at 4 °C for 10 min, and the supernatant was taken directly for LC-MS/MS analysis. The main pharmacokinetic parameters were analyzed using WinNonlin8.2 software for non compartmental model analysis. Table 3: pharmacokinetic test in rats results of test compounds

SNU16 cells = assay: Proliferation inhibition, CCK-8 colorimetric method; type: cell-based
Description: (§1) CCK-8 (Bimake/B34304) colorimetric method was used to detect the in vitro proliferation inhibitory effect of compounds on suspended or adherent cells in this experiment. The specific experimental steps were as follows: • 1) Cell plating: SNU16 and A204 tumor cells (cells from Shanghai Institute of Organic Chemistry, Chinese Academy of Sciences) in the logarithmic growth phase were digested and centrifuged for trypan blue counting, and the cells were seeded into a transparent 96 well plate at a density of 4000 cells/100 µ 1/well. […] The test compound and control compound stock solution were diluted with the corresponding culture medium required for cell culture (with or without solvent DMSO) to obtain a series of working solutions, with concentrations of twice the final concentration. The solvent DMSO contents in each concentration group were consistent with that of the solvent control group. The final concentration of A204 cells started at 10 µM and was diluted twice.
(§2) Calculation of cell survival rate: Cell survival rate (%)=[(As-Ac)/(Ab-Ac)] × 100%] (As: experimental well; Ab: Solvent control well; Ac: Blank well).

A204 cells = assay: as above; type: cell-based; details: 72 h
Description: as §1, §2

Ba/F3-TEL-FGFR2, sequence (P21802 481-770 limits assumed, one chain of several): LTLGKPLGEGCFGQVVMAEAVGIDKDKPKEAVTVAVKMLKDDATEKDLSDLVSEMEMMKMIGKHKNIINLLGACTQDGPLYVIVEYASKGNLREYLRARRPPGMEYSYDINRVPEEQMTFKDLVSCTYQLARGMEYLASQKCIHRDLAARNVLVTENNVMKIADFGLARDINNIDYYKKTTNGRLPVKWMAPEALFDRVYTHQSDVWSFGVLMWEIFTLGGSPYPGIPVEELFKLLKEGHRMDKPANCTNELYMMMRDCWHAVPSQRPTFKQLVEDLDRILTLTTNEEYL
Ba/F3-TEL-FGFR1, sequence (P11362 478-767 limits assumed, one chain of several): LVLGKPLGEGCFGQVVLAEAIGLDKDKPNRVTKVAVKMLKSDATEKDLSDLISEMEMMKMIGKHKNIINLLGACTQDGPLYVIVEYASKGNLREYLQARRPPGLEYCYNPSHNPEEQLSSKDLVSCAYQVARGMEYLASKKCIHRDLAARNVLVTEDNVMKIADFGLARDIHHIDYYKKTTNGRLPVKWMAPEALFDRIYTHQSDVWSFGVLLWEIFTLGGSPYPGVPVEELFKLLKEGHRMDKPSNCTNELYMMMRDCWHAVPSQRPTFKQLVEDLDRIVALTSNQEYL
Ba/F3-TEL-FGFR3, sequence (P22607 472-761 limits assumed, one chain of several): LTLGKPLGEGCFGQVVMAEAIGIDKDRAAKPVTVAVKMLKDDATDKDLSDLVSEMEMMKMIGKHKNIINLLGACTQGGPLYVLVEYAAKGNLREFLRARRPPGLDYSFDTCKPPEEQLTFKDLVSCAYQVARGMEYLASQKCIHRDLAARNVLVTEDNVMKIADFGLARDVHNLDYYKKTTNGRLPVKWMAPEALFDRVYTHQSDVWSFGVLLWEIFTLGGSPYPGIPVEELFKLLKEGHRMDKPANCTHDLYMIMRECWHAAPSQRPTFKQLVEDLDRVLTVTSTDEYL

Compound | IC50 (Ba/F3-TEL-FGFR1) | IC50 (Ba/F3-TEL-FGFR2) | IC50 (Ba/F3-TEL-FGFR3) | IC50 (SNU16 cells; Homo sapiens, SNU-16, 72 h) | IC50 (A204 cells; Homo sapiens) | other results
C=C(C)C(=O)Nc1ccc(-c2c(-c3ccc(N=S(=O)(N(C)C)C(F)(F)F)c(F)c3)c3c(N)ncnc3n2C)cc1 (stereo not drawn) [Compound 48] | 625 nM | 0.9 nM | 577 nM |  |  | AUC(0-t) [1]: 883 ng·h/mL; Cmax [1]: 212 ng/mL; Tmax [1]: 49.8 min; half-life [1]: 206 min
[2H]C([2H])([2H])n1c(-c2ccc(NC(=O)C(=C)C)cc2F)c(-c2ccc(N=S(=O)(CC)CC)cc2)c2c(N)ncnc21 [Compound 109] |  | 4.5 nM |  | 9.38 nM | 1040 nM | 
C=C(C)C(=O)Nc1ccc(-c2c(-c3ccc(N=S4(=O)CCCCC4)c(F)c3)c3c(N)ncnc3n2C)c(F)c1 [Compound 7] | 627 nM | 2.4 nM | 545 nM |  |  | 
C=C(C)C(=O)Nc1ccc(-c2c(-c3ccc(N=S4(=O)CCCC4)c(F)c3)c3c(N)ncnc3n2C)c(C#N)c1 [Compound 26, N-(4-(4-amino-5-(3-fluoro-4-((1-oxotetrahydro-1 λ^6-thiophene-1-ylidene)amino)phenyl) -7-methyl-7H-pyrrolo [2,3-d]pyrimidin-6-yl) -3-cyanophenyl) methacrylamide] |  | 4.5 nM | 110 nM | 3.36 nM | 285 nM | 
C=C(C)C(=O)Nc1ccc(-c2c(-c3ccc(N=S4(=O)CCC4)c(Cl)c3)c3c(N)ncnc3n2C)c(F)c1 [Compound 104] | 640 nM | 0.9 nM |  | 5.51 nM | 1020 nM | 
C=C(C)C(=O)Nc1ccc(-c2c(-c3ccc(N=S4(=O)CCC4)cc3)c3c(N)ncnc3n2C)c(F)c1 [Compound 8] | 600 nM | 0.7 nM |  | 1.34 nM | 618 nM | AUC(0-t) [1]: 630 ng·h/mL; Cmax [1]: 352 ng/mL; Tmax [1]: 15 min; half-life [1]: 109 min
[2H]C([2H])([2H])n1c(-c2ccc(NC(=O)C(=C)C)cc2F)c(-c2ccc(N=S3(=O)C=CC=C3)cc2)c2c(N)ncnc21 [Compound 98, N-(4-(4-amino-7-(methyl-d3) -5-(4-((1-oxo-1 λ^6-thiophene-1-ylidene)amino)phenyl) -7H-pyrrolo [2,3-d]pyrimidin-6-yl) -3-fluorophenyl) methacrylamide] | 416 nM | 0.6 nM |  | 1.81 nM | 845 nM | 
C=C(C)C(=O)Nc1ccc(-c2c(-c3ccc(N=S4(=O)CCCC4)c(F)c3)c3c(N)ncnc3n2C)c(C)c1 [Compound 22, N-(4-(4-amino-5-(3-fluoro-4-((1-oxotetrahydro-1 λ^6-thiophene-1-ylidene)amino)phenyl) -7-methyl-7H-pyrrolo [2,3-d]pyrimidin-6-yl) -3-methylphenyl) methacrylamide] | 717 nM | 2.7 nM |  | 4.97 nM | 1610 nM | 
C=C(C)C(=O)Nc1ccc(-c2c(-c3ccc(N=S4(=O)CCC4)c(F)c3)c3c(N)ncnc3n2C)c(Cl)c1 [Compound 74, N-(4-(4-amino-5-(3-fluoro-4-(1-oxo-1λ^6-thietan-1-imino)phenyl) -7-methyl-7H-pyrrolo[2,3-d]pyrimidin-6-yl)-3-chlorophenyl)methacrylamide] | 300 nM | 0.5 nM |  | 1.19 nM | 595 nM | 
[2H]C([2H])([2H])n1c(-c2ccc(NC(=O)C(=C)C)cc2F)c(-c2ccc(N=S3(=O)CCC3)c(F)c2)c2c(N)ncnc21 [Compound 97, N-(4-(4-amino-5-(3-fluoro-4-((1-oxo-1 λ^6-thiophene-1-ylidene)amino)phenyl) -7-(methyl-d3) -7H-pyrrole [2,3-d]pyrimidin-6-yl) -3-fluorophenyl) methacrylamide] | 480 nM | 1.9 nM |  | 2.66 nM | 764 nM | 
C=C(C)C(=O)Nc1ccc(-c2c(-c3ccc(N=S4(=O)CCCC4)c(Cl)c3)c3c(N)ncnc3n2C)c(F)c1 [Compound 88, N-(4-(4-amino-5-(3-chloro-4-((1-oxidetetrahydro-1 λ^6-thiophene-1-ylidene)amino)phenyl) -7-methyl-7H-pyrrolo [2,3-d]pyrimidin-6-yl) -3-fluorophenyl) methacrylamide] | 561 nM | 1.5 nM | 216 nM |  |  | 
N-(4-(4-amino-7-methyl-5-(4-(1-oxotetrahydro-2H-1λ^6-thiopyran-1- imino) phenyl) -7H-pyrrolo [2,3-d] pyrimidin-6-yl) -3-fluorophenyl) methacrylamide [Compound 1] | 656 nM | 2.3 nM | 869 nM |  |  | IC50 (SNU16 cells; 72 h): 5.57 nM; IC50 (A204 cells): 1310 nM
[2H]C([2H])([2H])n1c(-c2cc(C)c(NC(=O)C(=C)C)cc2Cl)c(-c2ccc(N=S3(=O)CCCC3)c(F)c2)c2c(N)ncnc21 [Compound 90, N-(4-(4-amino-5-(3-fluoro-4-((1-tetrahydro-1λ^6-thiophene-1-ylidene)amino)phenyl) -7-(methyl-d3) -7H-pyrrolo [2,3-d]pyrimidin-6-yl) -5-chloro-2-methylphenyl) methacrylamide] |  | 3.6 nM | 174 nM |  |  | 
CC#CC(=O)Nc1ccc(-c2c(-c3ccc(N=S4(=O)CCCCC4)c(F)c3)c3c(N)ncnc3n2C)cc1 [Compound 35, N-(4-(4-amino-5-(3-fluoro-4-((1-oxotetrahydro-2H-1 λ^6-thiopyran-1-ylidene)amino)phenyl) -7-methyl-7H-pyrrolo [2,3-d]pyrimidin-6-yl)phenyl) but-2-ynamide] |  | 4.4 nM |  | 4.91 nM | 406 nM | 
C=C(C)C(=O)Nc1ccc(-c2c(-c3ccc(N=S4(=O)CC(C)(C)C4)cc3)c3c(N)ncnc3n2C)c(F)c1 [Compound 63] | 396 nM | 1.1 nM |  |  |  | AUC(0-t) [1]: 1700 ng·h/mL; Cmax [1]: 556 ng/mL; Tmax [1]: 30 min; half-life [1]: 155 min
[2H]C([2H])([2H])n1c(-c2ccc(NC(=O)C(=C)C)cc2F)c(-c2ccc(N=S3(=O)CCCC3)c(F)c2)c2c(N)ncnc21 [Compound 94] | 625 nM | 1.1 nM | 205 nM |  |  | 
C=C(C)C(=O)Nc1ccc(-c2c(-c3ccc(N=S(=O)(CC)CC)c(F)c3)c3c(N)ncnc3n2C)c(F)c1 [Compound 100] | 823 nM | 1.9 nM | 414 nM |  |  | 
C=C(C)C(=O)Nc1ccc(-c2c(-c3ccc(N=S(=O)(CC)CC)cc3)c3c(N)ncnc3n2C)c(Cl)c1 [Compound 102] |  | 0.6 nM |  | 2.63 nM | 502 nM | 
CCN1CCN(c2ccc(Nc3cc(N(C)C(=O)Nc4c(Cl)c(OC)cc(OC)c4Cl)ncn3)cc2)CC1 [BGJ398, reference compound] |  |  |  | 4.3 nM | 100 nM | 
C=C(C)C(=O)Nc1ccc(-c2c(-c3ccc(N=S(=O)(N(C)C)C(F)(F)F)cc3)c3c(N)ncnc3n2C)c(F)c1 (stereo not drawn) [Compound 32] |  | 0.4 nM |  |  |  | IC50 (SNU16 cells; 72 h): 9.56 nM; IC50 (A204 cells): 2250 nM
C=C(C)C(=O)Nc1ccc(-c2c(-c3ccc(Oc4nccc(C)n4)c(F)c3)c3c(N)ncnc3n2C)cc1 [Control compound I, reference compound] |  |  |  | 13.2 nM | 3220 nM | AUC(0-t) ([1]; male, SD): 606 ng·h/mL; Cmax ([1]; male, SD): 141 ng/mL; Tmax ([1]; male, SD): 40.2 min; half-life ([1]; male, SD): 51 min
C=C(F)C(=O)Nc1ccc(-c2c(-c3ccc(N=S4(=O)CCCCC4)cc3)c3c(N)ncnc3n2C)cc1 [Compound 68, N-(4-(4-amino-7-methyl-5-(4-((1-oxotetrahydro-2H-1 λ^6-thiopyran-1-ylidene)amino)phenyl)-7H-pyrrolo[2,3-d]pyrimidin-6-yl)phenyl)-2-fluoroacrylamide] |  | 0.5 nM |  | 1.65 nM | 267 nM | 
C=C(F)C(=O)Nc1ccc(-c2c(-c3ccc(N=S4(=O)CCCC4)c(F)c3)c3c(N)ncnc3n2C)cc1 [Compound 21, N-(4-(4-amino-5-(3-fluoro-4-((1-oxotetrahydro-1 λ^6-thiophene-1-ylidene)amino)phenyl) -7-methyl-7H-pyrrolo [2,3-d]pyrimidin-6-yl)phenyl) -2-fluoroacrylamide] |  | 0.8 nM |  | 1.72 nM | 333 nM | 
